Measurements taken from patent US12173042B2, “Methods of treating cancers with CT45 targeted therapies” (The University of Chicago, priority 2016, dated 2024).
Entries after “also recorded” stand apart in the source; their conditions may differ.

What was measured:
[1] = system: OVCAR5 CT45 expressing cells; assay: Proliferation with increasing concentrations of carboplatin; type: cell-based, human; conditions: CT45 expressing cells treated with carboplatin
Description: FIG. 8A-B. CT45 sensitizes cancer cells to carboplatin. a, Western blot of CT45 expression in ovarian cancer cell lines transduced with a CT45A5 lentivirus. b, Proliferation of OVCAR5 control (V5) or CT45 expressing cells with increasing concentrations of carboplatin.
FIG. 19A-F. CT45 sensitizes cancer cells to carboplatin. a, MTT of SKOV3ip1 cells with or without 500 nM DAC treated with increasing doses of carboplatin. Cells were pretreated with 500 nM DAC for 72 hr then cultured for 4 days and treated with carboplatin on day 7. The MTT was performed after 72 hr with carboplatin treatment. b, Western blot of CT45 expression in ovarian cancer cell lines transduced with a CT45A5 lentivirus. c, Proliferation of OVCAR5 control (V5) or CT45 expressing cells with increasing concentrations of carboplatin. d, Cell cycle analysis of OVCAR5 control (V5) or CT45 expressing cells stained with propidium iodide. e, Clonogenic survival assay of the ovarian cancer cell line OVKATE stably overexpressing CT45 or control. Dots represent mean values from three independent experiments. Error bars show s.e.m. for each group. f, Interaction proteomics screen in the ovarian cancer cell line COV318 stably over-expressing V5-tagged CT45. Protein enrichment (t-test difference) is calculated over the corresponding control cell line (V5 tag alone) and plotted against the t-test p-value (−log10). […]

[2] = system: OVCAR5-V5 (control plasmid) tumors; assay: Subcutaneous tumor growth in nude mice, control vector tumors; type: in vivo, athymic nude mice; conditions: carboplatin 20 mg/kg tail vein 1 time/week, control cell line
Description: (§1) 5 million OVCAR5-V5 or OVCAR5-V5-CT45 cells suspended in a 1:2 solution of serum-free media to growth-factor reduced matrigel were injected subcutaneously into the right and left flanks respectively, of 8 week old female athymic nude mice. After 5 days, treatment was administered through the tail vein 1 time/week at 20 mg/kg. Sterile water served as the control treatment. Tumor growth was measured every 2-3 days using calipers until the tumor neared 1 cm3 and was measured daily. Once the tumor reached 1 cm3 the mouse was sacrificed. 4 mice were removed from the study early due to ulcerations of the skin. All experiments were approved by the Institutional Animal Care and Use Committee of the University of Chicago.
as §1, with “Five million” for “5 million”, “8 weeks” for “8 week”, “1 cm^3” for “1 cm3”, “skin. […]” for “skin. All experiments were approved by the Institutional Animal Care and Use Committee of the University of Chicago.”

[3] = system: γH2AX and cleaved caspase-3 in CT45-expressing cancer cells; assay: Western blot of γH2AX and cleaved caspase-3; type: cell-based, human; conditions: day 5
Description: (§2) Cells were treated with 5 μM carboplatin plus 1.5 nM paxlitaxel for 3 days and then incubated an additional 2 days without drug prior to collection on day 5. Both adherent and non-adherent cells were collected in RIPA buffer (25 mM Tris-HCl pH 7.6, 150 mM NaCl, 1% NP-40, 0.5% sodium deoxycholate, 0.1% SDS) supplemented with protease inhibitor cocktail (Thermo Scientific) and phosphatase inhibitor cocktail (Sigma). Lysates were incubated for 30 min on ice before centrifugation (15 min, 14 000 rpm, 4° C.). The quantity of protein was determined by BCA reagent (Pierce). The extracts were analyzed by SDS-PAGE on a 4-20% gradient gel (Bio-Rad).
as §2, with “indicated drugs” for “5 μM carboplatin plus 1.5 nM paxlitaxel”, “media was changed. On indicated” for “incubated an additional 2 days without drug prior to collection on”, “of collection, both” for “5. Both”, “ice, sonicated and cleared by” for “ice before”

[4] = system: interaction of CT45 with heterochromatin-associated PP4; assay: ChIP-MS of V5-tagged CT45 ± carboplatin; type: cell-based, human; conditions: OVCAR5-V5-CT45 ± carboplatin
Description: For chromatin immunoprecipitation coupled to mass spectrometry (ChIP-MS), freshly harvested cells were crosslinked with 1% formaldehyde for 10 min in PBS. Cells were lysed in IP Buffer (50 mM Tris-HCl (pH 8), 100 mM NaCl, 5 mM EDTA (pH 8), 0.3% SDS, 1.7% Triton-X-100, supplemented with EDTA-free protease inhibitor cocktail (Roche) and phosphatase inhibitor cocktail (Roche)) and chromatin sonicated to an average size of 200-400 bp. 1 mg of total cell lysate was incubated with 3 μg of respective antibody overnight at 4° C. under constant rotation. The next day, 30 μl of protein G-coupled agarose beads (Cell signaling technology) were added and incubated for 3 h at 4° C. under constant rotation. Antibody-bait complexes were then washed three times with low salt wash buffer (50 mM HEPES pH 7.5, 140 mM NaCl, 1% Triton), once with high salt wash buffer (50 mM HEPES pH 7.5, 500 mM NaCl, 1% Triton) and twice with TBS. Elution was carried out by a partial on-bead digest as recently described. Peptides were finally desalted with C18 StageTips prior to MS analysis.

## N.N.O=C([O-])C1(C(=O)[O-])CCC1.[Pt+2] [carboplatin]
[1]
  proliferation: significantly reduced; also recorded: reduced proliferation
[2]
  tumor growth: no effect
[3]
  levels of cleaved caspase-3: increased levels
  levels of γH2AX: increased levels
[4]
  interaction of CT45 with heterochromatin-associated PP4: not affected
